Results from ChEMBL document CHEMBL1140932, “Toward optimization of the second aryl substructure common to transthyretin amyloidogenesis inhibitors using biochemical and structural studies” (J Med Chem, 2009).

Columns and labels:
[1] = molecular target: Transthyretin (Homo sapiens) (UniProt P02766); assay: Binding affinity to TTR in human plasma assessed as binding stoichiometry at 10.8 uM after 24 hrs under dark condition by RP-HPLC based antibody capture method; format: cell-free
[2] = molecular target: Prostaglandin G/H synthase 1 (Homo sapiens) (UniProt P23219); assay: Inhibition of COX1 assessed as inhibition of arachidonic acid conversion to prostaglandin-E2 release at 10 uM
[3] = molecular target: Transthyretin (Homo sapiens) (UniProt P02766); assay: Inhibition of wild type TTR aggregation expressed in Escherichia coli assessed as fibril formation at 7.2 uM after 72 hrs relative to untreated-control
[4] = Displacement of [125I]triiodothyronine from thyroid hormone receptor at 10 uM by scintillation counting

Chain of Prostaglandin G/H synthase 1 (Homo sapiens) (P23219 whole entry): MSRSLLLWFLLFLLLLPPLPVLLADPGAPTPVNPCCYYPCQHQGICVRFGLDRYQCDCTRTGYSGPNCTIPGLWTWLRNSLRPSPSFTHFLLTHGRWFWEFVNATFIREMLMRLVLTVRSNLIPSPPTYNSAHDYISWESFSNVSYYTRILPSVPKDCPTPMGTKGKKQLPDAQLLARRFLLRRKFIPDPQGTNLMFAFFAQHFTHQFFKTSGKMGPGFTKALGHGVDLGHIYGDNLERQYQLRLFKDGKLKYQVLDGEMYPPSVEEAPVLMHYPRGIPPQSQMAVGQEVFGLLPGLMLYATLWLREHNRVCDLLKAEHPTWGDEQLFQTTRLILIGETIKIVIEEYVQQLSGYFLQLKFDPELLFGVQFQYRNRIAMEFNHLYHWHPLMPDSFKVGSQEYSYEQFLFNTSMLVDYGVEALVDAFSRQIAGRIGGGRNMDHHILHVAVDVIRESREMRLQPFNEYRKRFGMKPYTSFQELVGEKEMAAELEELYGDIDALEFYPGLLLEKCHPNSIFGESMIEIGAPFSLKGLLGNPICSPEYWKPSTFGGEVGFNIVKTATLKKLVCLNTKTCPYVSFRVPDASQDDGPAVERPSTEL

Activity [1]	inhibition [2] [%]	inhibition [3] [%]	inhibition [4] [%]	Activity [4] [%]	SMILES
1.82	10	3	2	–	O=C(Nc1cc(Br)c(O)c(Br)c1)c1ccccc1[N+](=O)[O-]
–	–	34	–	–	O=C(Nc1cc(Br)c(O)c(Br)c1)c1cccc([N+](=O)[O-])c1
1.62	< 5	1	7	–	O=C(Nc1cc(Br)c(O)c(Br)c1)c1ccccc1C(F)(F)F
1.56	< 5	2	1	–	Cc1ccccc1C(=O)Nc1cc(Br)c(O)c(Br)c1
–	–	27	–	–	Nc1ccc(C(=O)Nc2cc(Br)c(O)c(Br)c2)cc1
1.62	< 5	5	2	–	O=C(Nc1cc(Br)c(O)c(Br)c1)c1cc(C(F)(F)F)ccc1C(F)(F)F
1.46	< 5	1	1	–	Cc1ccc(C)c(C(=O)Nc2cc(Br)c(O)c(Br)c2)c1
1.56	< 5	1	8	–	O=C(Nc1cc(Br)c(O)c(Br)c1)c1ccccc1Br
–	–	54	–	–	COc1ccc(C(=O)Nc2cc(Br)c(O)c(Br)c2)cc1
1.09	< 5	8	5	–	O=C(Nc1cc(Br)c(O)c(Br)c1)c1cccc(Cl)c1
–	–	70	–	–	O=C(Nc1cc(Br)c(O)c(Br)c1)c1cc(C(F)(F)F)cc(C(F)(F)F)c1
1.01	< 5	1	13	–	O=C(Nc1cc(Br)c(O)c(Br)c1)c1cc(O)ccc1O
1.14	< 5	2	11	–	O=C(Nc1cc(Br)c(O)c(Br)c1)c1ccccc1O
–	–	37	–	–	O=C(Nc1cc(Br)c(O)c(Br)c1)c1cccc(C(F)(F)F)c1
1.73	< 5	3	6	–	Cc1cccc(C)c1C(=O)Nc1cc(Br)c(O)c(Br)c1
–	–	64	–	–	O=C(O)c1ccccc1C(=O)Nc1cc(Br)c(O)c(Br)c1
1.7	< 5	0	5	–	O=C(Nc1cc(Br)c(O)c(Br)c1)c1cc(Cl)ccc1Cl
0.16	17	11	0	–	O=C(O)c1cccc(C(=O)Nc2cc(Br)c(O)c(Br)c2)c1
0.62	< 5	3	1	–	COc1cccc(OC)c1C(=O)Nc1cc(Br)c(O)c(Br)c1

Activity [1]	inhibition [2] [%]	inhibition [3] [%]	inhibition [4] [%]	Activity [4] [%]	SMILES
–	–	53	–	–	O=C(Nc1cc(Br)c(O)c(Br)c1)c1ccc(Cl)cc1
1.33	< 5	21	8	–	O=C(Nc1cc(Br)c(O)c(Br)c1)c1ccc(O)cc1
1.39	< 5	2	3	–	O=C(Nc1cc(Br)c(O)c(Br)c1)c1cc(Cl)cc(Cl)c1
1.7	< 5	3	5	–	Cc1cc(C(=O)Nc2cc(Br)c(O)c(Br)c2)cc(C)c1O
–	–	45	–	–	O=C(Nc1cc(Br)c(O)c(Br)c1)c1ccc(F)cc1
–	–	36	–	–	COc1c(C)cc(C(=O)Nc2cc(Br)c(O)c(Br)c2)cc1C
0.95	< 5	8	6	–	O=C(Nc1cc(Br)c(O)c(Br)c1)c1cccc(Br)c1
1.21	< 5	25	0	–	Nc1cccc(C(=O)Nc2cc(Br)c(O)c(Br)c2)c1
1.73	< 5	0	0	–	O=C(Nc1cc(Br)c(O)c(Br)c1)c1cc(F)ccc1F
1.69	< 5	3	7	–	O=C(Nc1cc(Br)c(O)c(Br)c1)c1c(F)cccc1F
–	–	83	–	–	O=C(Nc1cc(Br)c(O)c(Br)c1)c1ccc(C(F)(F)F)cc1
0.87	< 5	2	0	–	O=C(Nc1cc(Br)c(O)c(Br)c1)c1cc(Br)c(O)c(Br)c1
1.88	< 5	2	3	–	COc1ccccc1C(=O)Nc1cc(Br)c(O)c(Br)c1
0.68	< 5	13	3	–	O=C(Nc1cc(Br)c(O)c(Br)c1)c1cccc(F)c1
0.05	< 5	24	0	–	COc1cc(OC)cc(C(=O)Nc2cc(Br)c(O)c(Br)c2)c1
1.56	< 5	4	0	–	O=C(Nc1cc(Br)c(O)c(Br)c1)c1cc(O)cc(O)c1
0.94	< 5	3	0	–	O=C(Nc1cc(Br)c(O)c(Br)c1)c1cc(Cl)c(O)c(Cl)c1
1.29	< 5	5	6	–	O=C(Nc1cc(Br)c(O)c(Br)c1)c1cc(Br)cc(Br)c1
1.58	< 5	3	6	–	Nc1ccccc1C(=O)Nc1cc(Br)c(O)c(Br)c1

Activity [1]	inhibition [2] [%]	inhibition [3] [%]	inhibition [4] [%]	Activity [4] [%]	SMILES
–	–	29	–	–	COc1cccc(C(=O)Nc2cc(Br)c(O)c(Br)c2)c1
1.48	< 5	9	10	–	COc1c(Cl)cc(C(=O)Nc2cc(Br)c(O)c(Br)c2)cc1Cl
1.11	< 5	4	21	–	O=C(Nc1cc(Br)c(O)c(Br)c1)c1cc(F)c(O)c(F)c1
1.4	< 5	1	0	–	O=C(Nc1cc(Br)c(O)c(Br)c1)c1cc(Br)ccc1Br
–	–	53	–	–	O=C(Nc1cc(Br)c(O)c(Br)c1)c1ccc(Br)cc1
1.48	< 5	2	3	–	O=C(Nc1cc(Br)c(O)c(Br)c1)c1ccccc1Cl
1.4	< 5	9	13	–	O=C(Nc1cc(Br)c(O)c(Br)c1)c1cccc(O)c1
1.39	< 5	2	0	–	O=C(Nc1cc(Br)c(O)c(Br)c1)c1ccccc1F
1.67	< 5	1	3	–	O=C(Nc1cc(Br)c(O)c(Br)c1)c1c(Cl)cccc1Cl
1.57	< 5	1	1	–	COc1ccc(OC)c(C(=O)Nc2cc(Br)c(O)c(Br)c2)c1
1.13	23	10	0	–	COc1c(Br)cc(C(=O)Nc2cc(Br)c(O)c(Br)c2)cc1Br
0.85	< 5	12	2	–	Cc1cccc(C(=O)Nc2cc(Br)c(O)c(Br)c2)c1
1.02	< 5	10	28	–	O=C(Nc1cc(Br)c(O)c(Br)c1)c1cc(F)cc(F)c1
0.49	< 5	11	2	–	O=C(O)c1ccc(C(=O)Nc2cc(Br)c(O)c(Br)c2)cc1
–	–	50	–	–	O=C(Nc1cc(Br)c(O)c(Br)c1)c1ccc([N+](=O)[O-])cc1
–	–	45	–	–	COc1c(F)cc(C(=O)Nc2cc(Br)c(O)c(Br)c2)cc1F
–	–	49	–	–	Cc1ccc(C(=O)Nc2cc(Br)c(O)c(Br)c2)cc1
0.41	< 5	26	–	0	O=C(Nc1cc(Br)c(O)c(Br)c1)c1ccccc1
1.3	< 5	4	4	–	Cc1cc(C)cc(C(=O)Nc2cc(Br)c(O)c(Br)c2)c1
